Patent publication US9738634B2, “Heterocyclic amide compound and herbicide” (SYNGENTA PARTICIPATIONS AG, priority 2013, dated 2017)

Key:
Format in all cases: in vivo
barnyard grass [1] = experiment: Test Example 1: weedkilling efficacy, preemergent weed treatment in the submerged state; A: barnyard grass; settings: treatment dosage 252 g/ha
Procedure, shortened: (§1)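 Pots of alluvial soil were flooded to a 4 cm depth. Mixed weed seeds were sown and 2.5 leaf-stage rice seedlings transplanted. On sowing day, water-diluted emulsion was applied to the water surface (dose in g/ha). After 3 weeks at 25–30 °C, effects were rated.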

bulrush [2] = experiment: Test Example 1: weedkilling efficacy, preemergent weed treatment in the submerged state; B: bulrush; settings: treatment dosage 252 g/ha
Procedure, shortened: as §1

oval-leafed pondweed [3] = experiment: Test Example 1: weedkilling efficacy, preemergent weed treatment in the submerged state; C: oval-leafed pondweed; settings: treatment dosage 252 g/ha
Procedure, shortened: as §1

transplanted rice = experiment: Test Example 1: preemergent weed treatment in the submerged state, effect on crop; a: transplanted rice; settings: treatment dosage 252 g/ha
Procedure, shortened: as §1

barnyard grass [4] = experiment: Test Example 2: weedkilling efficacy, growth period weed treatment in the submerged state; A: barnyard grass; settings: treatment dosage 252 g/ha
Procedure, shortened: (§2)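 Weeds treated at the 1-2 leaf stage by application of diluted emulsion onto floodwater (4 cm depth, alluvial soil) at specified g/ha. Grown in greenhouse at 25 to 30° C; herbicidal effect rated three weeks after treatment.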

bulrush [5] = experiment: Test Example 2: weedkilling efficacy, growth period weed treatment in the submerged state; B: bulrush; settings: treatment dosage 252 g/ha
Procedure, shortened: as §2

oval-leafed pondweed [6] = experiment: Test Example 2: weedkilling efficacy, growth period weed treatment in the submerged state; C: oval-leafed pondweed; settings: treatment dosage 252 g/ha
Procedure, shortened: as §2

crabgrass [7] = experiment: Test Example 3: weedkilling efficacy through soil treatment; D: crabgrass; settings: treatment dosage 315 g/ha
Procedure, shortened: (§3)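 Crop and weed responses were judged three weeks after a uniform surface spray of the water-diluted emulsion at the given g/ha rate. Seeds sat beneath about 1.5 cm of sterilized diluvial soil, and boxes stood in a greenhouse at 25 to 30° C.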

green foxtail [8] = experiment: Test Example 3: weedkilling efficacy through soil treatment; E: green foxtail; settings: treatment dosage 315 g/ha
Procedure, shortened: as §3

wild oat = experiment: Test Example 3: weedkilling efficacy through soil treatment; G: wild oat; settings: treatment dosage 315 g/ha
Procedure, shortened: as §3

black-grass [9] = experiment: Test Example 3: weedkilling efficacy through soil treatment; H: black-grass; settings: treatment dosage 315 g/ha
Procedure, shortened: as §3

Italian ryegrass [10] = experiment: Test Example 3: weedkilling efficacy through soil treatment; I: Italian ryegrass; settings: treatment dosage 315 g/ha
Procedure, shortened: as §3

Indian mallow [11] = experiment: Test Example 3: weedkilling efficacy through soil treatment; K: Indian mallow; settings: treatment dosage 315 g/ha
Procedure, shortened: as §3

redroot pigweed [12] = experiment: Test Example 3: weedkilling efficacy through soil treatment; L: redroot pigweed; settings: treatment dosage 315 g/ha
Procedure, shortened: as §3

fig-leafed goosefoot [13] = experiment: Test Example 3: weedkilling efficacy through soil treatment; M: fig-leafed goosefoot; settings: treatment dosage 315 g/ha
Procedure, shortened: as §3

chickweed [14] = experiment: Test Example 3: weedkilling efficacy through soil treatment; N: chickweed; settings: treatment dosage 315 g/ha
Procedure, shortened: as §3

birds-eye speedwell [15] = experiment: Test Example 3: weedkilling efficacy through soil treatment; p: birds-eye speedwell; settings: treatment dosage 315 g/ha
Procedure, shortened: as §3

directly sown rice [16] = experiment: Test Example 3: soil treatment, effect on crop; b: directly sown rice; settings: treatment dosage 315 g/ha
Procedure, shortened: as §3

corn [17] = experiment: Test Example 3: soil treatment, effect on crop; c: corn; settings: treatment dosage 315 g/ha
Procedure, shortened: as §3

soybean [18] = experiment: Test Example 3: soil treatment, effect on crop; d: soybean; settings: treatment dosage 315 g/ha
Procedure, shortened: as §3

wheat [19] = experiment: Test Example 3: soil treatment, effect on crop; e: wheat; settings: treatment dosage 315 g/ha
Procedure, shortened: as §3

beet [20] = experiment: Test Example 3: soil treatment, effect on crop; f: beet; settings: treatment dosage 315 g/ha
Procedure, shortened: as §3

crabgrass [21] = experiment: Test Example 4: weedkilling efficacy by foliar treatment; D: crabgrass; settings: treatment dosage 315 g/ha
Procedure, shortened: (§4)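 Seeds are spot-sown into sterilized diluvial soil and covered with about 1.5 cm of soil. After 14 days' greenhouse growth at 25 to 30° C, plants are sprayed on stems and leaves with diluted emulsion at the stated g/ha rate, then scored at 3 weeks.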

green foxtail [22] = experiment: Test Example 4: weedkilling efficacy by foliar treatment; E: green foxtail; settings: treatment dosage 315 g/ha
Procedure, shortened: as §4

black-grass [23] = experiment: Test Example 4: weedkilling efficacy by foliar treatment; H: black-grass; settings: treatment dosage 315 g/ha
Procedure, shortened: as §4

Italian ryegrass [24] = experiment: Test Example 4: weedkilling efficacy by foliar treatment; I: Italian ryegrass; settings: treatment dosage 315 g/ha
Procedure, shortened: as §4

Indian mallow [25] = experiment: Test Example 4: weedkilling efficacy by foliar treatment; K: Indian mallow; settings: treatment dosage 315 g/ha
Procedure, shortened: as §4

redroot pigweed [26] = experiment: Test Example 4: weedkilling efficacy by foliar treatment; L: redroot pigweed; settings: treatment dosage 315 g/ha
Procedure, shortened: as §4

fig-leafed goosefoot [27] = experiment: Test Example 4: weedkilling efficacy by foliar treatment; M: fig-leafed goosefoot; settings: treatment dosage 315 g/ha
Procedure, shortened: as §4

chickweed [28] = experiment: Test Example 4: weedkilling efficacy by foliar treatment; N: chickweed; settings: treatment dosage 315 g/ha
Procedure, shortened: as §4

catchweed = experiment: Test Example 4: weedkilling efficacy by foliar treatment; O: catchweed; settings: treatment dosage 315 g/ha
Procedure, shortened: as §4

birds-eye speedwell [29] = experiment: Test Example 4: weedkilling efficacy by foliar treatment; p: birds-eye speedwell; settings: treatment dosage 315 g/ha
Procedure, shortened: as §4

directly sown rice [30] = experiment: Test Example 4: foliar treatment, effect on crop; b: directly sown rice; settings: treatment dosage 315 g/ha
Procedure, shortened: as §4

corn [31] = experiment: Test Example 4: foliar treatment, effect on crop; c: corn; settings: treatment dosage 315 g/ha
Procedure, shortened: as §4

soybean [32] = experiment: Test Example 4: foliar treatment, effect on crop; d: soybean; settings: treatment dosage 315 g/ha
Procedure, shortened: as §4

wheat [33] = experiment: Test Example 4: foliar treatment, effect on crop; e: wheat; settings: treatment dosage 315 g/ha
Procedure, shortened: as §4

beet [34] = experiment: Test Example 4: foliar treatment, effect on crop; f: beet; settings: treatment dosage 315 g/ha
Procedure, shortened: as §4

Compound	A (barnyard grass) weedkilling efficacy grade (barnyard grass [1])	B (bulrush) weedkilling efficacy grade (bulrush [2])	C (oval-leafed pondweed) weedkilling efficacy grade (oval-leafed pondweed [3])	a (transplanted rice) effect on crop grade (transplanted rice)	A (barnyard grass) weedkilling efficacy grade (barnyard grass [4])	B (bulrush) weedkilling efficacy grade (bulrush [5])	C (oval-leafed pondweed) weedkilling efficacy grade (oval-leafed pondweed [6])	D (crabgrass) weedkilling efficacy grade (crabgrass [7])	E (green foxtail) weedkilling efficacy grade (green foxtail [8])	G (wild oat) weedkilling efficacy grade (wild oat)	H (black-grass) weedkilling efficacy grade (black-grass [9])	I (Italian ryegrass) weedkilling efficacy grade (Italian ryegrass [10])	K (Indian mallow) weedkilling efficacy grade (Indian mallow [11])	L (redroot pigweed) weedkilling efficacy grade (redroot pigweed [12])	M (fig-leafed goosefoot) weedkilling efficacy grade (fig-leafed goosefoot [13])	N (chickweed) weedkilling efficacy grade (chickweed [14])	P (birds-eye speedwell) weedkilling efficacy grade (birds-eye speedwell [15])	b (directly sown rice) effect on crop grade (directly sown rice [16])	c (corn) effect on crop grade (corn [17])	d (soybean) effect on crop grade (soybean [18])	also measured
CC1=C(c2ccsc2)C(=O)N(C(C)(C)C(=O)Nc2cccc(F)n2)CO1 [B-2-04]	5 (weed kill ratio 90% or more, (practically complete withering))	5 (weed kill ratio 90% or more, (practically complete withering))	5 (weed kill ratio 90% or more, (practically complete withering))	3 (weed kill ratio 40% or more, less than 70%)	5 (weed kill ratio 90% or more, (practically complete withering))	5 (weed kill ratio 90% or more, (practically complete withering))	5 (weed kill ratio 90% or more, (practically complete withering))	5 (weed kill ratio 90% or more, (practically complete withering))	5 (weed kill ratio 90% or more, (practically complete withering))	5 (weed kill ratio 90% or more, (practically complete withering))	5 (weed kill ratio 90% or more, (practically complete withering))	5 (weed kill ratio 90% or more, (practically complete withering))	4 (weed kill ratio 70% or more, less than 90%)	4 (weed kill ratio 70% or more, less than 90%)	5 (weed kill ratio 90% or more, (practically complete withering))	5 (weed kill ratio 90% or more, (practically complete withering))	5 (weed kill ratio 90% or more, (practically complete withering))	5 (weed kill ratio 90% or more, (practically complete withering))	1 (weed kill ratio 5% or more, less than 20%)	0 (weed kill ratio 5% or less (practically no effect))	e (wheat) effect on crop grade (wheat [19]): 5 (weed kill ratio 90% or more, (practically complete withering)); f (beet) effect on crop grade (beet [20]): 5 (weed kill ratio 90% or more, (practically complete withering)); D (crabgrass) weedkilling efficacy grade (crabgrass [21]): 5 (weed kill ratio 90% or more, (practically complete withering)); E (green foxtail) weedkilling efficacy grade (green foxtail [22]): 5 (weed kill ratio 90% or more, (practically complete withering)); H (black-grass) weedkilling efficacy grade (black-grass [23]): 5 (weed kill ratio 90% or more, (practically complete withering)); I (Italian ryegrass) weedkilling efficacy grade (Italian ryegrass [24]): 5 (weed kill ratio 90% or more, (practically complete withering)); K (Indian mallow) weedkilling efficacy grade (Indian mallow [25]): 5 (weed kill ratio 90% or more, (practically complete withering)); L (redroot pigweed) weedkilling efficacy grade (redroot pigweed [26]): 5 (weed kill ratio 90% or more, (practically complete withering)); M (fig-leafed goosefoot) weedkilling efficacy grade (fig-leafed goosefoot [27]): 5 (weed kill ratio 90% or more, (practically complete withering)); N (chickweed) weedkilling efficacy grade (chickweed [28]): 4 (weed kill ratio 70% or more, less than 90%); O (catchweed) weedkilling efficacy grade (catchweed): 4 (weed kill ratio 70% or more, less than 90%); P (birds-eye speedwell) weedkilling efficacy grade (birds-eye speedwell [29]): 5 (weed kill ratio 90% or more, (practically complete withering)); b (directly sown rice) effect on crop grade (directly sown rice [30]): 5 (weed kill ratio 90% or more, (practically complete withering)); c (corn) effect on crop grade (corn [31]): 3 (weed kill ratio 40% or more, less than 70%); d (soybean) effect on crop grade (soybean [32]): 4 (weed kill ratio 70% or more, less than 90%); e (wheat) effect on crop grade (wheat [33]): 5 (weed kill ratio 90% or more, (practically complete withering)); f (beet) effect on crop grade (beet [34]): 5 (weed kill ratio 90% or more, (practically complete withering))
CSc1nsc(NC(=O)C(C)(C)N2COC(C)=C(c3ccsc3)C2=O)n1 [B-1-05]	5 (weed kill ratio 90% or more, (practically complete withering))	5 (weed kill ratio 90% or more, (practically complete withering))	5 (weed kill ratio 90% or more, (practically complete withering))	4 (weed kill ratio 70% or more, less than 90%)	5 (weed kill ratio 90% or more, (practically complete withering))	5 (weed kill ratio 90% or more, (practically complete withering))	5 (weed kill ratio 90% or more, (practically complete withering))	5 (weed kill ratio 90% or more, (practically complete withering))	5 (weed kill ratio 90% or more, (practically complete withering))	5 (weed kill ratio 90% or more, (practically complete withering))	5 (weed kill ratio 90% or more, (practically complete withering))	0 (weed kill ratio 5% or less (practically no effect))	4 (weed kill ratio 70% or more, less than 90%)	4 (weed kill ratio 70% or more, less than 90%)	5 (weed kill ratio 90% or more, (practically complete withering))	4 (weed kill ratio 70% or more, less than 90%)	5 (weed kill ratio 90% or more, (practically complete withering))	5 (weed kill ratio 90% or more, (practically complete withering))	1 (weed kill ratio 5% or more, less than 20%)	0 (weed kill ratio 5% or less (practically no effect))	e (wheat) effect on crop grade (wheat [19]): 0 (weed kill ratio 5% or less (practically no effect)); f (beet) effect on crop grade (beet [20]): 5 (weed kill ratio 90% or more, (practically complete withering)); D (crabgrass) weedkilling efficacy grade (crabgrass [21]): 5 (weed kill ratio 90% or more, (practically complete withering)); E (green foxtail) weedkilling efficacy grade (green foxtail [22]): 5 (weed kill ratio 90% or more, (practically complete withering)); H (black-grass) weedkilling efficacy grade (black-grass [23]): 5 (weed kill ratio 90% or more, (practically complete withering)); I (Italian ryegrass) weedkilling efficacy grade (Italian ryegrass [24]): 4 (weed kill ratio 70% or more, less than 90%); K (Indian mallow) weedkilling efficacy grade (Indian mallow [25]): 5 (weed kill ratio 90% or more, (practically complete withering)); L (redroot pigweed) weedkilling efficacy grade (redroot pigweed [26]): 5 (weed kill ratio 90% or more, (practically complete withering)); M (fig-leafed goosefoot) weedkilling efficacy grade (fig-leafed goosefoot [27]): 5 (weed kill ratio 90% or more, (practically complete withering)); N (chickweed) weedkilling efficacy grade (chickweed [28]): 4 (weed kill ratio 70% or more, less than 90%); O (catchweed) weedkilling efficacy grade (catchweed): 4 (weed kill ratio 70% or more, less than 90%); P (birds-eye speedwell) weedkilling efficacy grade (birds-eye speedwell [29]): 5 (weed kill ratio 90% or more, (practically complete withering)); b (directly sown rice) effect on crop grade (directly sown rice [30]): 4 (weed kill ratio 70% or more, less than 90%); c (corn) effect on crop grade (corn [31]): 2 (weed kill ratio 20% or more, less than 40%); d (soybean) effect on crop grade (soybean [32]): 0 (weed kill ratio 5% or less (practically no effect)); e (wheat) effect on crop grade (wheat [33]): 0 (weed kill ratio 5% or less (practically no effect)); f (beet) effect on crop grade (beet [34]): 4 (weed kill ratio 70% or more, less than 90%)
